Values quoted from earlier work as cited in the PKSmart pharmacokinetics tables (Seal et al. 2025).
Where a SMILES comes first, the peptide text is derived from it. [ ]: non-standard residue; d: D form. The star is where a group is joined. ξ: configuration not given here. ξNMe2Val = CC(C)C(C(=O)*)N(C)C; pGlu = O=C1CC[CH](C(=O)O)N1; NMeV = CN[CH](C(=O)O)C(C)C; Thz = O=C(O)[CH]1CSCN1; NHtBu = CC(C)(C)N*

Assay: Lombardo, Berellini, Obach 2018, Drug Metab Dispos 46:1466, doi 10.1124/dmd.118.082966
Settings: human; for MRT / Vd / clearance / half-life: in vivo, iv; for fraction unbound: plasma

Row | SMILES | MRT [h] | Vd [L/kg] | clearance [mL/min/kg] | half-life [h] | fraction unbound
1 | CS(=O)(=O)OC[C@H](O)[C@@H](O)COS(C)(=O)=O | 2 | 0.59 | 4.9 | 1.83 | –
2 | COc1ccc(C[C@@H]2c3cc(OC)c(OC)cc3CC[N@+]2(C)CCC(=O)OCCCCCOC(=O)CC[N@@+]2(C)CCc3cc(OC)c(OC)cc3[C@H]2Cc2ccc(OC)c(OC)c2)cc1OC | 0.43 | 0.14 | 5.4 | 0.42 | 0.62
3 | COC(C(=O)N1Cc2[nH]nc(NC(=O)c3ccc(N4CCN(C)CC4)cc3)c2C1)c1ccccc1 (centres undefined) | 6.8 | 2.5 | 6.1 | 25 | –
4 | CC(C)(C)NC[C@H](O)COc1nsnc1N1CCOCC1 | 3 | 1.5 | 8.5 | 2.2 | –
5 | C#C[C@]1(O)CC[C@H]2[C@@H]3CCC4=Cc5oncc5C[C@]4(C)[C@H]3CC[C@@]21C | 5.49 | 5.18 | 15.7 | 2.31 | –
6 | CN(C)C(=O)Oc1ccc[n+](C)c1 | 1.8 | 1.1 | 9.6 | 1.5 | –
7 | CN1C(=O)C(O)N=C(c2ccccc2Cl)c2cc(Cl)ccc21 (centres undefined) | 6.7 | 1.6 | 4 | 4.9 | –
8 | O=C(Cn1ccnc1[N+](=O)[O-])NCC(O)C(F)(F)F (centres undefined) | 3.86 | 0.69 | 3 | 3.45 | –
9 | CCC(CC)COC(C(=O)OCCN(C)C)(c1ccccc1)c1ccccc1 | 21 | 7.1 | 5.7 | 34 | –
10 | CC(C)NCC(O)c1cc(O)cc(O)c1 (centres undefined) | 7.14 | 6.03 | 14.1 | 6.41 | 0.9
11 | COC(=O)NC(C(=O)N1CCC[C@H]1c1ncc(-c2ccc(-c3ccc(-c4cnc([C@@H]5CCCN5C(=O)C(NC(=O)OC)C(C)C)[nH]4)cc3)cc2)[nH]1)C(C)C (some centres undefined) | 11.2 | 0.67 | 1 | 13.5 | 0.01
12 | CC(NC(=O)C(Cc1c[nH]c2ccccc12)NC(=O)C(N)Cc1cnc[nH]1)C(=O)NC(Cc1c[nH]c2ccccc12)C(=O)NC(Cc1ccccc1)C(=O)NC(CCCCN)C(N)=O (centres undefined) (H-HWAWFK-NH2; configuration not given here) | 2.45 | 0.42 | 3.1 | 2.46 | –
13 | CC(C)C(NC(=O)C(C(C)C)N(C)C)C(=O)N(C)C(C(=O)N1CCCC1C(=O)N1CCCC1C(=O)NC(C)(C)C)C(C)C (centres undefined) (ξNMe2Val-V[NMeV]PP-NHtBu; configuration not given here) | 0.58 | 0.33 | 9.6 | 0.57 | –
14 | C[C@@H]1[C@H](O)[C@@H](C)C=CC=CC=CC=CC=CC=CC=C[C@H](O[C@H]2O[C@H](C)[C@@H](O)[C@H](N)[C@@H]2O)C[C@@H]2O[C@@](O)(C[C@@H](O)C[C@@H](O)[C@H](O)CC[C@@H](O)C[C@@H](O)CC(=O)O[C@H]1C)C[C@H](O)C2C(=O)O (some centres undefined) | 61 | 0.62 | 0.17 | 40 | 0.03
15 | CCNC(=O)OC1CCN(c2nncc3cc(OC)c(OC)cc23)CC1 | 0.25 | 0.67 | – | – | 0.08
16 | CC(=O)OCC1=C(C(=O)O)N2C(=O)C(NC(=O)CSc3ccncc3)[C@H]2SC1 (some centres undefined) | 0.8 | 0.13 | 2.7 | 1.2 | 0.55
17 | CC(=O)NC[C@H]1CN(c2ccc(N3CCOCC3)c(F)c2)C(=O)O1 | 5.4 | 0.58 | 1.8 | 4.5 | –
18 | Cc1ccc(-c2ncc(Cl)cc2-c2ccc(S(C)(=O)=O)cc2)cn1 | 32 | 1.5 | 0.79 | 26 | 0.081
19 | CCCN(CCC)CCc1cccc2[nH]c(O)cc12 | 4.3 | 7.7 | 30 | 6 | 0.6
20 | CCCCCCCCCCCCCCC[C@@H](O)[C@H](C)N | 8.89 | 30.7 | 57.6 | 29.7 | –
21 | CCCCC[C@@H](O)CC[C@H]1[C@@H]2Cc3cccc(OCC(=O)O)c3C[C@@H]2C[C@@H]1O | 0.36 | 0.23 | 10.7 | 0.82 | 0.09

Row | SMILES | MRT [h] | Vd [L/kg] | clearance [mL/min/kg] | half-life [h] | fraction unbound
22 | O=C1CCC(C(=O)N2CSCC2C(=O)O)N1 (centres undefined) ([pGlu]-[Thz]-OH; configuration not given here) | 4.5 | 0.31 | 1.16 | 3.8 | 0.96
23 | N#Cc1ccc(Cn2cncc2CN2CCN(c3cccc(Cl)c3)C(=O)C2)cc1 | 4.2 | 0.8 | 3.2 | 2.6 | –
24 | CNC[C@H](O)CC12CCC(c3ccccc31)c1ccccc12 | 21.4 | 18.8 | 14.6 | 18.8 | –
25 | C=Cc1c(C)c2[nH]c1=Cc1[nH]c(c(=CCC(=O)O)c1C)=Cc1[nH]c(c(C)c1CCC(=O)OC)C=C1NC(=C3C=CC(C(=O)OC)=C(C(=O)OC)[C@@]13C)C=2 | 6.6 | 0.63 | 1.6 | 5.6 | –
26 | CC(C=Cc1c(C)c(O)c2ccccc2c1O)=CCC[C@H](C)CCC[C@H](C)CCCC(C)C | 3.3 | 0.32 | 1.6 | 7.3 | –
27 | O=c1[nH]c2ccccc2n1CCCN1CCC(n2c(=O)[nH]c3cc(Cl)ccc32)CC1 | 6 | 3.4 | 9.5 | – | –
28 | O=C(O)C[C@H](O)C[C@H](O)/C=C/c1c(C2CC2)nc2ccccc2c1-c1ccc(F)cc1 | 2.7 | 0.9 | 5.85 | 4.6 | 0.005
29 | CC(C)C1CCC(C(=O)NC(Cc2ccccc2)C(=O)O)CC1 (centres undefined) | 1.4 | 0.15 | 1.8 | 1.5 | –
30 | CCC(=O)OCC(=O)[C@@]1(OC(=O)CC)[C@@H](C)C[C@H]2[C@@H]3CC=C4CC(=O)C=C[C@]4(C)[C@@]3(Cl)[C@@H](O)C[C@@]21C | 0.1 | 0.29 | 36 | 0.5 | 0.13
31 | CN(C)[C@@H]1C(O)=C(C(N)=O)C(=O)[C@@]2(O)C(O)=C3C(=O)c4c(O)c(NC(=O)CN5CCCC5)cc(F)c4C[C@H]3C[C@@H]12 | 10.3 | 2.3 | 3.71 | – | 0.18
32 | CN(C)C1CCN(C(=O)c2ccc(NC(=O)Nc3ccc(-c4nc(N5CCOCC5)nc(N5CCOCC5)n4)cc3)cc2)CC1 | 17.6 | 2.39 | 2.25 | 35.8 | –
33 | CC[N+](C)(C)c1cccc([O-])c1 | 1.9 | 1.1 | 9.6 | 1.8 | –
34 | NCC1CCC(C(=O)O)CC1 (centres undefined) | 2.6 | 0.38 | 2.4 | 2.3 | –
35 | CCCn1c(=O)c2[nH]c(C34CC5CC(CC3C5)C4)nc2n(CCC)c1=O | 14.1 | 4.3 | 5 | 18.1 | –
36 | COC(=O)C1[C@@H](O)CC[C@H]2CN3CCc4c([nH]c5ccccc45)[C@@H]3C[C@@H]12 (some centres undefined) | 0.5 | 0.48 | 14.6 | 1.5 | –
37 | CCOP(=O)(OCC)[C@@H](NC(=O)[C@]1(O)[C@@H](O)[C@@]2(CC)C=CCN3CC[C@]4(c5cc([C@@]6(C(=O)OC)C[C@H]7C[N@@](CCc8c6[nH]c6ccccc86)C[C@@](O)(CC)C7)c(OC)cc5N(C)[C@@H]14)[C@@H]32)C(C)C | 22.2 | 4.67 | 3.5 | 34.3 | 0.1
38 | C=Cc1c(C)c2[nH]c1=Cc1[nH]c(c(=CCC(=O)OC)c1C)=Cc1[nH]c(c(C)c1CCC(=O)O)C=C1NC(=C3C=CC(C(=O)OC)=C(C(=O)OC)[C@@]13C)C=2 | 4.9 | 0.51 | 1.73 | 6.06 | –
39 | OCCN(CCO)c1nc(N2CCCCC2)c2nc(N(CCO)CCO)nc(N3CCCCC3)c2n1 | 6.8 | – | 2 | 13 | –
40 | C[C@H](Cc1cc2c(c(C(N)=O)c1)N(CCCO)CC2)NCCOc1ccccc1OCC(F)(F)F | – | – | 2.8 | 3.6 | 0.05
41 | CC[C@H]1CN2CC[C@H]1C[C@@H]2[C@@H](O)c1ccnc2ccc(OC)cc12 | 11 | 2.8 | 4.2 | 5.7 | 0.22
42 | CC[C@H](O)[C@@H](C)[C@H]1O[C@@H]1C[C@@](C)(O)/C=C/C=C(\C)[C@H]1OC(=O)C[C@H](O)CC[C@@](C)(O)[C@@H](OC(=O)N2CCN(C3CCCCCC3)CC2)C=C[C@@H]1C | 3.5 | 10.1 | 47.9 | 9.2 | –

Row | SMILES | MRT [h] | Vd [L/kg] | clearance [mL/min/kg] | half-life [h] | fraction unbound
43 | CCN(CC)Cc1cc(Nc2ccnc3cc(Cl)ccc23)ccc1O | 1.34 | 17.4 | 217 | 2.1 | –
44 | COc1c(N2C[C@@H](C)C[C@H](N)C2)ccc2c(=O)c(C(=O)O)cn(C3CC3)c12 | 8.4 | 1.9 | 3.8 | 13.5 | –
45 | C/C=C(\C)C(=O)O[C@H]1[C@H](OC(C)=O)[C@]2(CO)[C@H](O)C[C@]3(C)C(=CC[C@@H]4[C@@]5(C)CC[C@H](O[C@@H]6OC(C(=O)O)[C@@H](O[C@@H]7O[C@H](CO)[C@@H](O)[C@H](O)[C@H]7O)[C@H](O)[C@H]6O[C@@H]6O[C@H](CO)[C@@H](O)[C@H](O)[C@H]6O)[C@](C)(CO)[C@@H]5CC[C@]43C)[C@@H]2CC1(C)C (some centres undefined) | 2.85 | 0.28 | 1.65 | 2.4 | –
46 | CC1(C)C(\C=C/C=C/C=C/C=C2\N(CCCCS(=O)(=O)O)c3ccc4ccccc4c3C2(C)C)=[N+](CCCCS(=O)(=O)[O-])c2ccc3ccccc3c21 | 0.086 | 0.035 | 6.8 | 0.065 | 0.05
47 | C[N+]1(CC2CC2)[C@@H]2C[C@@H](OC(=O)C(CO)c3ccccc3)C[C@H]1[C@@H]1O[C@@H]12 (some centres undefined) | 0.74 | 1.12 | 25 | 0.83 | –
48 | CC(C)=CCC[C@]1(C)C=Cc2c(O)c3c(c(CC=C(C)C)c2O1)O[C@]12C(=CC4C[C@@H]1C(C)(C)O[C@@]2(C/C=C(/C)C(=O)O)C4=O)C3=O | 13.3 | 0.99 | 1.24 | 14.6 | –
49 | CN(C)N=Nc1ccc(C(=O)O)cc1 | 3 | 0.25 | 1.3 | 2.5 | –
50 | COC(=O)CC[C@@H]1N=C(c2ccccn2)c2cc(Br)ccc2-n2c(C)cnc21 | 0.5 | 0.44 | 15 | 0.75 | –
51 | CN(C)[C@@H](c1cccc(O)c1)[C@H]1CCCC[C@H]1O | – | – | 2.2 | 3.85 | –
52 | CCCCC(=O)N(Cc1ccc(-c2ccccc2-c2nnn[nH]2)cc1)C(C(=O)O)C(C)C (centres undefined) | 7.5 | 0.22 | 0.49 | 9.5 | 0.04
53 | Clc1ccc(COC(Cn2ccnc2)c2ccc(Cl)cc2Cl)c(Cl)c1 (centres undefined) | 12.6 | 7.14 | 9.48 | 19.8 | 0.08
54 | Oc1ccc(C2=Cc3ccc(O)cc3OC2)cc1 | 0.44 | 1.55 | 59.1 | 0.67 | –
55 | Cn1c(NCCN(CCO)CCCc2ccc([N+](=O)[O-])cc2)cc(=O)n(C)c1=O | 1.56 | 1.96 | 20.9 | 1.52 | 0.09
56 | COc1ccc(OC)c([C@H](O)CNC(=O)CN)c1 | 0.4 | 0.67 | 27.9 | 0.6 | 0.7
57 | CN(CCC(=O)/C=C/c1ccc(O)cc1)CCc1ccc2c(c1)OCO2 | 0.05 | 2.13 | 713 | 0.1 | –
58 | COc1c(C)c2c(c(O)c1C/C=C(\C)CCC(=O)O)C(=O)OC2 | 6.5 | 0.77 | 2.33 | 9.7 | 0.02
59 | COc1cccc2c(C(=O)N3CCN(C)C(C)C3)cn(CC3CCCCC3)c12 (centres undefined) | 5.7 | 1 | 3 | 4.2 | –
60 | O=C1c2c(c3c4ccc(O)cc4n([C@@H]4O[C@H](CO)[C@@H](O)[C@H](O)[C@H]4O)c3c3[nH]c4cc(O)ccc4c23)C(=O)N1NC(CO)CO | 0.95 | 1.45 | 25.3 | 4.01 | –
61 | CCc1cc2c(cc1N1CCC(N3CCOCC3)CC1)C(C)(C)c1[nH]c3cc(C#N)ccc3c1C2=O | 13.8 | 6.35 | 7.69 | 11.7 | 0.003
62 | C[C@H](CCc1ccc(O)cc1)NCCc1ccc(O)c(O)c1 | – | – | 115 | – | –
63 | O=C(c1ccc(F)c(F)c1Nc1ccc(I)cc1F)N1CC(O)([C@@H]2CCCCN2)C1 | 96.6 | 15.4 | 2.8 | 68.8 | 0.05
